# Assays:
# SK-ES-1 OS tumors = assay: SK-ES-1 osteosarcoma xenograft; format: in vivo, SCID mice; conditions: weekly×4
# in vitro = conditions: both, human, whole blood (sodium heparin), pH 7.4
Compound,antitumor efficacy (SK-ES-1 OS tumors),"blood plasma ratio at 60 min, 1 μM (in vitro)"
"COc1cccc2c1C(=O)c1c(O)c3c(c(O)c1C2=O)C[C@@](O)(C(=O)CO)C[C@@H]3O[C@H]1C[C@H](N)[C@H](O)[C@H](C)O1 [DOX, doxorubicin, reference compound]",not seen,
NS(=O)(=O)c1cc(C2(O)NC(=O)c3ccccc32)ccc1Cl (centres unmarked) [chlorthalidone],,8.73

# — patent US20250312469A1 (CANGET BIOTEKPHARMA, priority 2024, published 2025)
